# Values joined by “and” are separate entries in the source; they are usually repeats but may differ in a detail not shown here. Equal values may be shown once.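 Growth conditions: 96-well plates. Treatment: test compound, 48 hours, 5 concentrations. Analysis: linear interpolation between bracketing concentrations; unreached endpoints set to highest concentration. At the GI50, growth is halved. The concentration for full growth arrest is given as TGI.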
# Columns and labels:
# Experiment in all cases: inhibition of tumour cell growth, NCI panel, 48 h
# M14 melanoma = test system: M14 melanoma
# HOP-62 NSCLC = test system: HOP-62 NSCLC
# MDA-MB-435 = test system: MDA-MB-435
# KM12 colon = test system: KM12 colon
# BT-549 breast = test system: BT-549 breast
# SK-MEL-2 melanoma = test system: SK-MEL-2 melanoma
# HT29 colon = test system: HT29 colon
# DU-145 prostate = test system: DU-145 prostate
# UACC-62 melanoma = test system: UACC-62 melanoma
# NCI-H23 lung = test system: NCI-H23 lung
Compound,GI50 (M14 melanoma),TGI (M14 melanoma),GI50 (HOP-62 NSCLC),TGI (HOP-62 NSCLC),GI50 (MDA-MB-435),TGI (MDA-MB-435),GI50 (KM12 colon),TGI (KM12 colon),GI50 (BT-549 breast),TGI (BT-549 breast),GI50 (SK-MEL-2 melanoma),TGI (SK-MEL-2 melanoma),GI50 (HT29 colon),TGI (HT29 colon),GI50 (DU-145 prostate),TGI (DU-145 prostate),GI50 (UACC-62 melanoma),TGI (UACC-62 melanoma),GI50 (NCI-H23 lung) [µM],TGI (NCI-H23 lung) [µM]
CCN(CC)CCCC(C)Nc1cnc(C(=O)Nc2cc(F)cc3cccnc23)cn1 (configuration not stated),2.04 µM and 0.994 µM,4.38 µM and 2.58 µM,10.8 µM and 1.89 µM,25.3 µM and 3.62 µM,3.4 µM and 1.45 µM,12.8 µM and 3.43 µM,6.09 µM and 1.78 µM,19.5 µM and 3.34 µM,11.1 µM and 1.59 µM,24 µM and 3 µM,3.78 µM and 2.55 µM,10.8 µM and 6.39 µM,2.96 µM and 0.668 µM,10.8 µM and 4.76 µM,10.5 µM and 1.48 µM,23.1 µM and 2.84 µM,2.28 µM and 1.27 µM,5.5 µM and 2.69 µM,,
CCOC(=O)[C@@H](C)C[C@H](Cc1ccccc1)NC(=O)c1csc([C@@H](C[C@H](C(C)C)N(C)C(=O)[C@H](CCC(C)C)NC(=O)[C@H]2CCCCN2C)OC(C)=O)n1,,,0.00932 µM,5.68 µM,,,< 0.00333 µM,4.81 µM,0.0119 µM,0.195 µM,< 0.00333 µM,6.65 µM,< 0.00333 µM,0.0811 µM,0.00892 µM,26.2 µM,< 0.00333 µM,6.92 µM,0.0129,> 33.3
CN(C)CCCn1c2c3ccccc3ccc2c2oc(=O)c3ccccc3c21,,,,15.4 µM,,> 20 µM,,10.3 µM,,> 57.8 µM,,21.1 µM,,14.7 µM,,,,20.3 µM,,13.1
C=C(CN1CCN(c2ccccc2F)CC1)c1ccc(C(=O)Nc2ccccc2N)cc1,,,1.15 µM,9.45 µM,,,1.53 µM,11.4 µM,1.46 µM,8.82 µM,8.5 µM,> 100 µM,1.19 µM,4.37 µM,1.6 µM,6.06 µM,1.16 µM,18.3 µM,1.87,8.88
COc1ccc(C(=O)/C=C/c2cc(C(=O)c3cc(OC)c(OC)c(OC)c3)ccc2OC)cc1,4.92 µM,> 100 µM,11.8 µM,94.5 µM,,,,,2.85 µM,> 100 µM,6.04 µM,> 100 µM,,,,,,,,
Cc1cc2c(C(N)=O)cccc2n1-c1nc2c(c(NCc3ccccc3)n1)CCCN2,0.212 µM,0.432 µM,0.217 µM,0.454 µM,0.164 µM,0.322 µM,0.195 µM,0.4 µM,0.295 µM,0.695 µM,0.112 µM,0.265 µM,0.215 µM,0.485 µM,0.29 µM,0.783 µM,0.155 µM,0.33 µM,,
Cc1ccc(C(=O)N/N=C/c2cccc(Oc3ccccc3)c2)cn1,6.08 µM,> 100 µM,60.2 µM,> 100 µM,,,3.69 µM,> 100 µM,5.37 µM,> 55.6 µM,> 24.6 µM,> 100 µM,3.25 µM,> 100 µM,18.7 µM,> 100 µM,4.67 µM,> 100 µM,26.6,> 100
Cc1nc(Nc2ccc(F)c(Cl)c2)sc1C(=O)O,1.73 µM,3.66 µM,1.42 µM,2.93 µM,2.13 µM,5.25 µM,,,1.7 µM,4.28 µM,1.97 µM,3.8 µM,1.67 µM,3.44 µM,2.22 µM,7.84 µM,1.17 µM,2.62 µM,,
O=C(Nc1cc(Cl)ccc1O)c1cccc(NC2=C(Cl)C(=O)N(Cc3ccccc3)C2=O)c1,17.8 µM,36.7 µM,26.7 µM,67.3 µM,18.7 µM,38.6 µM,21.4 µM,52 µM,26.7 µM,80.5 µM,,,35.9 µM,> 100 µM,60.7 µM,> 100 µM,31.7 µM,> 100 µM,16.1,33.6
COc1ccc(/C=C2\CNC/C(=C\c3ccc(OC)cc3)C2=O)cc1,,> 100 µM,,> 100 µM,,,,> 100 µM,,,,> 100 µM,,> 100 µM,,,,> 100 µM,,60.1
O=C(N/N=C/c1ccc(O)cc1O)c1ccc(Nc2ccnc(C(F)(F)F)c2)cc1,> 100 µM,> 100 µM,,,> 100 µM,> 100 µM,> 100 µM,> 100 µM,22.2 µM,79.9 µM,> 59.1 µM,> 100 µM,> 100 µM,> 100 µM,21.9 µM,> 100 µM,0.0485 µM,> 100 µM,> 82.1,> 100
Cc1cc2c(c(C#N)c1C)NC(=O)C(CC(=O)O)C2=O (configuration not stated),,> 100 µM,,> 100 µM,,,,> 100 µM,,,,> 100 µM,,> 100 µM,,,,> 100 µM,,> 100
c1cncc(CNc2ccccc2-c2nnc(Nc3ccc4c(c3)OCCO4)o2)c1,0.0704 µM,> 100 µM,0.181 µM,> 100 µM,,,0.067 µM,1.86 µM,0.861 µM,53 µM,0.217 µM,> 100 µM,0.0504 µM,15.2 µM,0.244 µM,1.54 µM,0.0522 µM,> 100 µM,0.226,> 100
Cc1ccc(C2=Nc3ccccc3NC(=O)C2)cc1,,> 100 µM,,> 100 µM,,,,> 100 µM,,,,> 100 µM,,> 100 µM,,,,> 100 µM,,> 100
C=CCN=C1N=C(CC(=O)OCC)CS1,,> 100 µM,,> 100 µM,,,,> 100 µM,,,,> 100 µM,,> 100 µM,,,,> 100 µM,,> 100
COc1cc2c(OC)c(c1)CCCC1=CC(=O)C=C(CCC2)C1=O,,> 64.5 µM,,> 100 µM,,56.2 µM,,59.6 µM,,92.3 µM,,,,> 100 µM,,> 100 µM,,> 100 µM,,> 100
Cc1cc(S(=O)(=O)NC#N)c(S/C(=N\Nc2ccc([N+](=O)[O-])cc2)c2ccccc2)cc1Cl,18.1 µM,37.3 µM,17.2 µM,32.3 µM,32.7 µM,> 100 µM,16.6 µM,30.2 µM,15.7 µM,36.7 µM,13.8 µM,34 µM,,,11.7 µM,24 µM,21.5 µM,51.8 µM,15.4,28.8

# — PubChem BioAssay (NCI)
